According to patent US9751846B2, “Method for producing 1,4-benzoxazine compound” (MITSUBISHI TANABE PHARMA CORPORATION, priority 2012, dated 2017):
Entries after “also recorded” stand apart in the source; their conditions may differ.

Tests used:
mutagenicity (AMES test) = assay type: cell-based
[1] = stability of the crystal form (transition by heating, thermostability); assay type: physicochemical; conditions: for stability of the crystal: general statement
[2] = hygroscopicity of the crystal form; assay type: physicochemical
[3] = stability of the crystal in a formulation; assay type: physicochemical

Structure (SMILES)	stability of the crystal [1]	hygroscopicity [2]	further results
CC1(C)Oc2cc(N(S(C)(=O)=O)S(C)(=O)=O)ccc2N(c2ccc(F)cc2)C1=O [compound [c], N-[4-(4-fluorophenyl)-2,2-dimethyl-3-oxo-3,4-dihydro-2H-1,4-benzoxazin-7-yl]-N-(methylsulfonyl)methanesulfonamide]			mutagenicity (mutagenicity (AMES test); test not named at this place, synthetic intermediate of the new route): lower mutagenicity
CC1(C)Oc2cc(NS(C)(=O)=O)ccc2N(c2ccc(F)cc2)C1=O [Form A crystal, N-[4-(4-fluorophenyl)-2,2-dimethyl-3-oxo-3,4-dihydro-2H-1,4-benzoxazin-7-yl]methanesulfonamide]	highly stable	low hygroscopicity; also recorded: non-hygroscopic	transition to amorphous state or other crystal form by heating ([1]; heating): hardly makes a transition to other crystal form by heating; also recorded: does not transform to an amorphous state or other crystal form; stability in a formulation [3]: high stability in a formulation; also recorded: highly stable in a formulation
CC1(C)Oc2cc(N)ccc2N(c2ccc(F)cc2)C1=O [intermediate (2), 7-amino-4-(4-fluorophenyl)-2,2-dimethyl-2H-1,4-benzoxazin-3(4H)-one]			mutagenicity by the AMES test (mutagenicity (AMES test); synthetic intermediate of the Patent Literature 1 route): strong mutagenicity

Now from value to molecule, other results behind:

stability of the crystal [1]	Structure (SMILES)	hygroscopicity [2]	further results
highly stable	CC1(C)Oc2cc(NS(C)(=O)=O)ccc2N(c2ccc(F)cc2)C1=O [Form C crystal, N-[4-(4-fluorophenyl)-2,2-dimethyl-3-oxo-3,4-dihydro-2H-1,4-benzoxazin-7-yl]methanesulfonamide]		
highly stable	CC1(C)Oc2cc(NS(C)(=O)=O)ccc2N(c2ccc(F)cc2)C1=O [Form B crystal, N-[4-(4-fluorophenyl)-2,2-dimethyl-3-oxo-3,4-dihydro-2H-1,4-benzoxazin-7-yl]methanesulfonamide]	low hygroscopicity	thermostability ([1]; as compared to the Form D crystal of Patent Literature 1): higher thermostability
